Experimental data reported in ChEMBL document CHEMBL1152855, “Regioselective synthesis of dispiro[1H-indene-2,3'-pyrrolidine-2',3''-[3H]indole]-1,2''(1''H)-diones of potential anti-tumor properties” (2009).

Experiments:
SF-539 = experiment: Growth inhibition of human SF539 cells at 10 uM after 48 hrs by sulforhodamine B assay; type: functional; conditions: SF-539, 48 h, values are per cent of control
BT-549 = experiment: Growth inhibition of human BT549 cells at 10 uM after 48 hrs by sulforhodamine B assay; type: functional; conditions: BT-549, 48 h, values are per cent of control
NCI-H23 = experiment: Growth inhibition of human NCI-H23 cells at 10 uM after 48 hrs by sulforhodamine B assay; type: functional; conditions: NCI-H23, 48 h, values are per cent of control
Rattus norvegicus [1] = experiment: Antiinflammatory activity against carrageenan-induced paw edema in Wister albino rat assessed as inhibition of edema at 50 mg/kg, ip administered 1 hr prior to carrageenan challenge measured after 3 hrs relative to control; type: functional; conditions: route intraperitoneal
SK-OV-3 = experiment: Growth inhibition of human SKOV3 cells at 10 uM after 48 hrs by sulforhodamine B assay; type: functional; conditions: SK-OV-3, 48 h, values are per cent of control
NCI-H322M = experiment: Growth inhibition of human NCI-H322M cells at 10 uM after 48 hrs by sulforhodamine B assay; type: functional; conditions: values are per cent of control
SN12C = experiment: Growth inhibition of human SN12C cells at 10 uM after 48 hrs by sulforhodamine B assay; type: functional; conditions: values are per cent of control
Rattus norvegicus [2] = experiment: Antiinflammatory activity against carrageenan-induced paw edema in Wister albino rat assessed as inhibition of edema at 50 mg/kg, ip administered 1 hr prior to carrageenan challenge measured after 4 hrs relative to indomethacin; type: functional; conditions: route intraperitoneal
HCT-116 = experiment: Growth inhibition of human HCT116 cells at 10 uM after 48 hrs by sulforhodamine B assay; type: functional; conditions: HCT-116, 48 h, values are per cent of control
Rattus norvegicus [3] = experiment: Antiinflammatory activity against carrageenan-induced paw edema in Wister albino rat assessed as inhibition of edema at 50 mg/kg, ip administered 1 hr prior to carrageenan challenge measured after 2 hrs relative to control; type: functional; conditions: route intraperitoneal
SF-295 = experiment: Growth inhibition of human SF295 cells at 10 uM after 48 hrs by sulforhodamine B assay; type: functional; conditions: SF-295, 48 h, values are per cent of control
KM12 = experiment: Growth inhibition of human KM12 cells at 10 uM after 48 hrs by sulforhodamine B assay; type: functional; conditions: KM12, 48 h, values are per cent of control
K562 = experiment: Growth inhibition of human K562 cells at 10 uM after 48 hrs by sulforhodamine B assay; type: functional; conditions: K562, 48 h, values are per cent of control
OVCAR-5 = experiment: Growth inhibition of human OVCAR5 cells at 10 uM after 48 hrs by sulforhodamine B assay; type: functional; conditions: OVCAR-5, 48 h, values are per cent of control
MDA-MB-435 = experiment: Growth inhibition of human MDA-MB-435 cells at 10 uM after 48 hrs by sulforhodamine B assay; type: functional; conditions: MDA-MB-435, 48 h, values are per cent of control
HOP-92 = experiment: Growth inhibition of human HOP92 cells at 10 uM after 48 hrs by sulforhodamine B assay; type: functional; conditions: HOP-92, 48 h, read-out: GI
HCT-15 = experiment: Growth inhibition of human HCT15 cells at 10 uM after 48 hrs by sulforhodamine B assay; type: functional; conditions: HCT-15, 48 h, values are per cent of control
Rattus norvegicus [4] = experiment: Antiinflammatory activity against carrageenan-induced paw edema in Wister albino rat assessed as inhibition of edema at 50 mg/kg, ip administered 1 hr prior to carrageenan challenge measured after 1 hr relative to control; type: functional; conditions: route intraperitoneal
NCI-H460 = experiment: Growth inhibition of human NCI-H460 cells at 10 uM after 48 hrs by sulforhodamine B assay; type: functional; conditions: NCI-H460, 48 h, values are per cent of control
786-0 = experiment: Growth inhibition of human 786-0 cells at 10 uM after 48 hrs by sulforhodamine B assay; type: functional; conditions: 786-0, 48 h, values are per cent of control
SNB-19 = experiment: Growth inhibition of human SNB19 cells at 10 uM after 48 hrs by sulforhodamine B assay; type: functional; conditions: SNB-19, 48 h, values are per cent of control
COLO 205 = experiment: Growth inhibition of human COLO205 cells at 10 uM after 48 hrs by sulforhodamine B assay; type: functional; conditions: COLO 205, 48 h, values are per cent of control
MOLT-4 = experiment: Growth inhibition of human MOLT4 cells at 10 uM after 48 hrs by sulforhodamine B assay; type: functional; conditions: MOLT-4, 48 h, values are per cent of control
HT-29 = experiment: Growth inhibition of human HT-29 cells at 10 uM after 48 hrs by sulforhodamine B assay; type: functional; conditions: HT-29, 48 h, values are per cent of control
DU-145 = experiment: Growth inhibition of human DU145 cells at 10 uM after 48 hrs by sulforhodamine B assay; type: functional; conditions: DU-145, 48 h, values are per cent of control
CCRF-CEM = experiment: Growth inhibition of human CCRF-CEM cells at 10 uM after 48 hrs by sulforhodamine B assay; type: functional; conditions: values are per cent of control
U-251 = experiment: Growth inhibition of human U251 cells at 10 uM after 48 hrs by sulforhodamine B assay; type: functional; conditions: U-251, 48 h, values are per cent of control
HOP-62 = experiment: Growth inhibition of human HOP62 cells at 10 uM after 48 hrs by sulforhodamine B assay; type: functional; conditions: HOP-62, 48 h, values are per cent of control
NCI-H226 = experiment: Growth inhibition of human NCI-H226 cells at 10 uM after 48 hrs by sulforhodamine B assay; type: functional; conditions: NCI-H226, 48 h, values are per cent of control
SK-MEL-2 = experiment: Growth inhibition of human SK-MEL-2 cells at 10 uM after 48 hrs by sulforhodamine B assay; type: functional; conditions: SK-MEL-2, 48 h, read-out: GI
UACC-257 = experiment: Growth inhibition of human UACC257 cells at 10 uM after 48 hrs by sulforhodamine B assay; type: functional; conditions: UACC-257, 48 h, values are per cent of control
SR = experiment: Growth inhibition of human SR cells at 10 uM after 48 hrs by sulforhodamine B assay; type: functional; conditions: values are per cent of control
UO-31 = experiment: Growth inhibition of human UO31 cells at 10 uM after 48 hrs by sulforhodamine B assay; type: functional; conditions: UO-31, 48 h, values are per cent of control
[5] = Growth inhibition of human Hs 578T cells at 10 uM after 48 hrs by sulforhodamine B assay; type: functional; conditions: values are per cent of control
TK-10 = experiment: Growth inhibition of human TK10 cells at 10 uM after 48 hrs by sulforhodamine B assay; values are per cent of control; conditions: TK-10, 48 h
NCI/ADR-RES = experiment: Growth inhibition of human NCI/ADR-RES cells at 10 uM after 48 hrs by sulforhodamine B assay; type: functional; conditions: values are per cent of control
RPMI-8226 = experiment: Growth inhibition of human RPMI8226 cells at 10 uM after 48 hrs by sulforhodamine B assay; type: functional; conditions: RPMI-8226, 48 h, read-out: GI
OVCAR-3 = experiment: Growth inhibition of human OVCAR-3 cells at 10 uM after 48 hrs by sulforhodamine B assay; type: functional; conditions: OVCAR-3, 48 h, values are per cent of control

Compound	growth, % of control at 10 µM (SF-539)	growth, % of control at 10 µM (BT-549)	growth, % of control at 10 µM (NCI-H23)	inhibition in vivo at 50 mg/kg (Rattus norvegicus [1])	growth, % of control at 10 µM (SK-OV-3)	growth, % of control at 10 µM (NCI-H322M)	growth, % of control at 10 µM (SN12C)	activity relative to indomethacin (Rattus norvegicus [2])	growth, % of control at 10 µM (HCT-116)	inhibition in vivo at 50 mg/kg (Rattus norvegicus [3])	growth, % of control at 10 µM (SF-295)	growth, % of control at 10 µM (KM12)	growth, % of control at 10 µM (K562)	growth, % of control at 10 µM (OVCAR-5)	growth, % of control at 10 µM (MDA-MB-435)	inhibition of growth at 10 µM (HOP-92)	growth, % of control at 10 µM (HCT-15)	inhibition in vivo at 50 mg/kg (Rattus norvegicus [4])	growth, % of control at 10 µM (NCI-H460)	growth, % of control at 10 µM (786-0)	further results
[3H]N1C(=O)[C@@]2(c3ccccc31)N(C)C[C@@H](c1cccs1)[C@@]21Cc2ccccc2C1=O	109%	119%	92%	32.6%	96.2%	98.9%	99.6%	41%	92.2%	39.1%	105%	94.3%	93.7%	98.8%	115%	72.9%	103%	49.9%	109%	111%	growth, % of control at 10 µM (SNB-19): 99.8%; growth, % of control at 10 µM (COLO 205): 120%; growth, % of control at 10 µM (MOLT-4): 67.7%; growth, % of control at 10 µM (HT-29): 99.6%; growth, % of control at 10 µM (DU-145): 92%; growth, % of control at 10 µM (CCRF-CEM): 91.4%; growth, % of control at 10 µM (U-251): 100%; growth, % of control at 10 µM (HOP-62): 110%; growth, % of control at 10 µM (NCI-H226): 96.2%; inhibition of growth at 10 µM (SK-MEL-2): 6.58%; growth, % of control at 10 µM (UACC-257): 65%; growth, % of control at 10 µM (SR): 60.3%; growth, % of control at 10 µM (UO-31): 95.8%; growth, % of control at 10 µM [5]: 69.8%; growth, % of control at 10 µM (TK-10): 144%; growth, % of control at 10 µM (NCI/ADR-RES): 97.4%; inhibition of growth at 10 µM (RPMI-8226): 89.1%; growth, % of control at 10 µM (OVCAR-3): 95.6%
[3H]C([3H])([3H])N1C(=O)[C@@]2(c3ccccc31)N(C)C[C@@H](c1ccc(Cl)cc1)[C@@]21Cc2ccccc2C1=O	90.5%	111%	58%	9.4%	86.6%	106%	86.5%	18%	24.3%	36.3%	65%	68.7%	39.5%	95.4%	101%	25.1%	68.3%	47.2%	67.1%	86.2%	growth, % of control at 10 µM (SNB-19): 89.9%; growth, % of control at 10 µM (COLO 205): 70.5%; growth, % of control at 10 µM (MOLT-4): 87.5%; growth, % of control at 10 µM (HT-29): 46.1%; growth, % of control at 10 µM (DU-145): 91.1%; growth, % of control at 10 µM (CCRF-CEM): 108%; growth, % of control at 10 µM (U-251): 93.1%; growth, % of control at 10 µM (HOP-62): 88.1%; growth, % of control at 10 µM (NCI-H226): 63.2%; inhibition of growth at 10 µM (SK-MEL-2): -11.1%; growth, % of control at 10 µM (UACC-257): 42.6%; growth, % of control at 10 µM (SR): 51.4%; growth, % of control at 10 µM (UO-31): 66.1%; growth, % of control at 10 µM [5]: 55.2%; growth, % of control at 10 µM (TK-10): 140%; growth, % of control at 10 µM (NCI/ADR-RES): 79.4%; inhibition of growth at 10 µM (RPMI-8226): 13.4%; growth, % of control at 10 µM (OVCAR-3): 69.3%
[3H]C([3H])([3H])N1C(=O)[C@@]2(c3ccccc31)N(C)C[C@@H](c1cccs1)[C@@]21Cc2ccccc2C1=O	112%	131%	92%	9.1%	103%	89.3%	105%	27%	108%	10.8%	60.4%	107%	72.5%	102%	111%	69.2%	108%	33%	107%	106%	growth, % of control at 10 µM (SNB-19): 96.2%; growth, % of control at 10 µM (COLO 205): 107%; growth, % of control at 10 µM (MOLT-4): 72.2%; growth, % of control at 10 µM (HT-29): 97.5%; growth, % of control at 10 µM (DU-145): 121%; growth, % of control at 10 µM (CCRF-CEM): 90.5%; growth, % of control at 10 µM (U-251): 102%; growth, % of control at 10 µM (HOP-62): 99.9%; growth, % of control at 10 µM (NCI-H226): 85.7%; inhibition of growth at 10 µM (SK-MEL-2): -5.11%; growth, % of control at 10 µM (UACC-257): 52.6%; growth, % of control at 10 µM (SR): 72.5%; growth, % of control at 10 µM (UO-31): 93.5%; growth, % of control at 10 µM [5]: 21.1%; growth, % of control at 10 µM (TK-10): 149%; growth, % of control at 10 µM (NCI/ADR-RES): 98.5%; inhibition of growth at 10 µM (RPMI-8226): 87.9%; growth, % of control at 10 µM (OVCAR-3): 100%
